Assay results from patent US20070148710A1, “Cpt resistant cell line” (priority 2003, published 2007).
≈ marks a conversion by molar mass, not a printed value.

Columns and labels:
Assay type in all cases: cell-based, human
SW948 = experiment: cell proliferation assay, cross-resistance to topoisomerase I and II inhibitors; details: SW948 parental, mean ± SD, 2-4 independent assays; for IC50: Homo sapiens, read-out: Sensitivity expressed as IC50
From the text: (§1) Drug resistance to other topoisomerase I and II inhibitors was examined by determining the IC50 dose of each drug using a cell proliferation assay as shown in Table 3.

SW948CPTH = experiment: as above; details: for IC50: Homo sapiens, read-out: Sensitivity expressed as IC50; for change in resistance of SW948CPTH cells compared to the parental cell line SW948: IC50 by cell proliferation assay (Table 3)
From the text: as §1

SW948CPTH cells [1] = experiment: intracellular pH (BCECF fluorescence)
Experimental: 12. […] Cells were plated on glass coverslips and cultured overnight.

SW948CPTH cells [2] = experiment: change of CPT-11 IC50 (clonogenic assay) by verapamil, amiloride or EIPA
Experimental: (§2) 10. […] Cells were washed, trypsinized, and counted. Cell pellets were lysed with water and sonicated. […] Results were generated from three independent experiments. […] Data are expressed as mean±SD. […] Data are the mean±SD of two experiments done in triplicate.
12. […] Cells were plated on glass coverslips and cultured overnight. Intracellular pH was measured with a fluorescence spectrophotometer after cells were loaded with the pH-sensitive fluorescence dye, BCECF. The data represent the mean±SD of 60 individual cells. […] After 24 h the drugs were removed, cells washed with PBS and drug-free culture medium added to the cell cultures. Data represent the mean±SD from three assays done in triplicate with SW948CPTH cells and two assays done in triplicate for SW948CPTL cells.

SW948 cell line = experiment: SN38 IC50 determination
SW948CPTL cell line = experiment: SN38 IC50 determination
SW948CPTH cell line = experiment: SN38 IC50 determination
SW948CPTH cells [3] = experiment: intracellular accumulation of CPT-11 (HPLC), effect of verapamil; details: SW948CPTH; 10 μM verapamil with CPT-11 160 μM, 2 hours
From the text: as §2
(§3) Additionally, multidrug resistance can be evaluated by measuring the expression level of p-glycoprotein (p-gp) (Juliano et al Biochim Biophys Acta 11:152-162, 1976) and breast cancer resistant protein (BCRP) (Doyle et al Proc Natl Acad Sci U S A 95:15665-15670, 1998) in SW948 and the resistant SW948 cell lines (SW948CPTH and SW948CPTL). It is understood that the disclosed methods can also be used with other cell lines including other colon cancer cell lines. For example, the disclosed methods can be used with LS174T, WiDr, HT-29, SW403, DLD-1, SW480, SNU-C1, Caco-2, and COLO 205 cell lines.

SW948CPTL cells = experiment: as above; details: SW948CPTL
From the text: as §2, §3

SW948CPTL = experiment: cell proliferation assay, cross-resistance to topoisomerase I and II inhibitors
From the text: as §1

With `CC[C@@]1(O)C(=O)OCc2c1cc1n(c2=O)Cc2cc3ccccc3nc2-1` [CPT] the IC50 (SW948) was 0.1 ± 0.1 µg/mL (≈ 0.287 µM), the IC50 (SW948CPTH) was 0.6 ± 0.6 µg/mL (≈ 1.72 µM) and the “change in resistance of SW948CPTH cells compared to the parental cell line SW948” value (“change in resistance of SW948CPTH cells” below) (SW948CPTH) was “increased resistance”.

In the case of `CC[C@@]1(O)C(=O)OCc2c1cc1n(c2=O)Cc2cc3cc(O)ccc3nc2-1` [10-OH-CPT], the “Sensitivity expressed as IC50” value (SW948) is reported as 0.4 ± 0.3 µg/mL, the “change in resistance of SW948CPTH cells” value (SW948CPTH) is reported as “increased resistance” and the “Sensitivity expressed as IC50” value (SW948CPTH; SW948CPTH treated with 20 μg/ml CPT-11 for 62 days, then >22 days without CPT-11, mean ± SD) is reported as 2.1 ± 1.0 µg/mL.

With `N=C(N)NC(=O)c1nc(Cl)c(N)nc1N` [Amiloride] the “effect on intracellular pH” value (SW948CPTH cells [1]) was “lowered”, the “intracellular pH in the presence of amiloride” value (SW948CPTH cells [1]; from about 6.98 without amiloride (FIG. 8A)) was “about 6.85” and the “effect on resistance of the cells to CPT-11” value (SW948CPTH cells [2]; SW948CPTH, amiloride 300 μM with CPT-11 24 h (FIG. 8B)) was “decreased the resistance”.

For `CCc1c2c(nc3ccc(O)cc13)-c1cc3c(c(=O)n1C2)COC(=O)[C@]3(O)CC` [SN38], the “SN38 IC50” value (SW948 cell line) was 0.2 ± 0.01 µg/mL, the “SN38 IC50” value (SW948CPTL cell line) was 1.8 ± 0.2 µg/mL and the “SN38 IC50” value (SW948CPTH cell line) was 1.5 ± 0.1 µg/mL.

For `COc1ccc(CCN(C)CCCC(C#N)(c2ccc(OC)c(OC)c2)C(C)C)cc1OC` (stereo not drawn) [Verapamil], the “effect on intracellular concentration of CPT-11” value (SW948CPTH cells [3]) was “increased the intracellular concentration of CPT-11 to a level similar to the SW948 parent cells”, the “intracellular concentration of CPT-11 with verapamil relative to SW948 parent cells” value (SW948CPTL cells; 10 μM verapamil) was 2.4 times and the “effect on intracellular concentration of CPT-11” value (SW948CPTL cells; 10 μM verapamil with CPT-11 160 μM, 2 hours) was “increased”.

With `CC1(C)CCC2=C(O1)c1ccccc1C(=O)C2=O` [Lapachone] the IC50 (SW948) was 1.1 ± 0.2 µg/mL (≈ 4.54 µM), the IC50 (SW948CPTH) was 0.8 ± 0.2 µg/mL (≈ 3.3 µM) and the “change in resistance of SW948CPTH cells” value (SW948CPTH) was “No change”.

With `COc1cc([C@@H]2c3cc4c(cc3[C@@H](O[C@@H]3O[C@@H]5CO[C@@H](C)O[C@H]5[C@H](O)[C@H]3O)[C@H]3COC(=O)[C@H]23)OCO4)cc(OC)c1O` [Etoposide] the IC50 (SW948CPTL; Homo sapiens, read-out: Sensitivity expressed as IC50) was 1.8 ± 0.3 µg/mL (≈ 3.06 µM), the “increase in resistance by SW948CPTL cells compared to the parental cell line SW948” value (SW948CPTL; IC50 by cell proliferation assay (Table 3)) was 2 fold and the IC50 (SW948) was 0.9 ± 0.1 µg/mL (≈ 1.53 µM). The IC50 (SW948CPTH) was 0.9 ± 0.1 µg/mL (≈ 1.53 µM) and the “change in resistance of SW948CPTH cells” value (SW948CPTH) was “no change in resistance”.

In the case of `CCN(c1nc(N)c(C(=O)N=C(N)N)nc1Cl)C(C)C` [EIPA, 5-(N-ethyl-N-isopropyl)amiloride], the “effect on resistance of cells to CPT-11” value (SW948CPTH cells [2]; EIPA 3 or 10 μM with CPT-11 24 h, FIG. 8B covers SW948CPTH and SW948CPTL) is reported as “decreased the resistance”.
